Laboratory results as given in ChEMBL document CHEMBL3351441, “The effect of pK(a) on pyrimidine/pyridine-derived histamine H4 ligands” (Bioorg Med Chem Lett, 2014).

Legend:
[1] = molecular target: Histamine H4 receptor (Homo sapiens, UniProt Q9H3N8); test: Displacement of [3H]histamine from human recombinant histamine H4 receptor
[2] = Dissociation constant, pKa of the compound by Analiza PRO analyzer based method; format: physicochemical
[3] = Dissociation constant, pKa of the compound by potentiometric titration; format: physicochemical

Row | Ki [1] [nM] | pKa [2] | pKa [3] | Structure (SMILES)
1 | 3.1 | 6.5 |  | CN[C@@H]1CCN(c2cc(N)nc(NC(C)C)c2)C1
2 |  | 6.3 |  | CN[C@@H]1CCN(c2cc(N)nc(NC(C)C)n2)C1
3 |  | 6.3 | 7.5 | CCc1cc(N2CC[C@@H](NC)C2)nc(N)n1
4 | > 10000 | 3.1 | 3.1 | CN[C@@H]1CCN(c2cc(C(F)(F)F)nc(N)n2)C1
5 | 456 |  | 5.9 | CCc1cc(N2CC[C@@H](NC)C2)ncn1
6 | 92 | 6 |  | CN[C@@H]1CCN(c2cc(CCl)nc(N)n2)C1
7 | 126 | 5.5 |  | CN[C@@H]1CCN(c2cc(CF)nc(N)n2)C1
8 | > 10000 | 4.4 |  | CN[C@@H]1CCN(c2cc(C(F)F)nc(N)n2)C1
9 | 11 | 5.4 |  | CN[C@@H]1CCN(c2cc(CC(F)(F)F)nc(N)n2)C1
10 |  | 7.8 |  | CN[C@@H]1CCN(c2cc(CCC(F)(F)F)nc(N)n2)C1
11 | 320 | 6.3 |  | CN[C@@H]1CCN(c2cc(N)nc(C(C)C)n2)C1
12 | 460 | 6.5 |  | CN[C@@H]1CCN(c2ccnc(C(C)C)n2)C1

The remaining lines, values behind:

Row | Structure (SMILES) | Ki [1] [nM] | pKa [2] | pKa [3]
13 | Nc1nc(C2CCCC2)cc(N2CCNCC2)n1 |  | 7.9 | 
14 | CN[C@@H]1CCN(c2ccnc(NC(C)C)n2)C1 |  | 6.4 | 
15 | CN[C@@H]1CCN(c2ccnc(NC(C)C)c2)C1 |  | 6.6 | 
16 | Nc1nc(C2CCCC2)cc(C2CCNCC2)n1 | 1550 | 4.5 | 
17 | Nc1nc(NC2CCCC2)cc(C2CCNCC2)n1 | > 1000 | 6.1 | 
18 | Nc1cc(C2CCNCC2)cc(NC2CCCC2)n1 | 50 | 6.1 | 
19 | Nc1cc(N2CCNCC2)cc(NC2CCCC2)n1 | 2 | 6.5 | 
20 | Nc1cc(C2CCNCC2)cc(OC2CCCC2)n1 | > 10000 | 4.7 | 
